Measured values taken from ChEMBL document CHEMBL5291721, “A preclinical secondary pharmacology resource illuminates target-adverse drug reaction associations of marketed drugs” (Nat Commun, 2023).

Columns and labels:
Substance-P receptor = Substance-P receptor (Homo sapiens, UniProt P25103)
[1] = target: T1, Alpha-2A adrenergic receptor (Homo sapiens, UniProt P08913)
T1 sequence (P08913 whole entry): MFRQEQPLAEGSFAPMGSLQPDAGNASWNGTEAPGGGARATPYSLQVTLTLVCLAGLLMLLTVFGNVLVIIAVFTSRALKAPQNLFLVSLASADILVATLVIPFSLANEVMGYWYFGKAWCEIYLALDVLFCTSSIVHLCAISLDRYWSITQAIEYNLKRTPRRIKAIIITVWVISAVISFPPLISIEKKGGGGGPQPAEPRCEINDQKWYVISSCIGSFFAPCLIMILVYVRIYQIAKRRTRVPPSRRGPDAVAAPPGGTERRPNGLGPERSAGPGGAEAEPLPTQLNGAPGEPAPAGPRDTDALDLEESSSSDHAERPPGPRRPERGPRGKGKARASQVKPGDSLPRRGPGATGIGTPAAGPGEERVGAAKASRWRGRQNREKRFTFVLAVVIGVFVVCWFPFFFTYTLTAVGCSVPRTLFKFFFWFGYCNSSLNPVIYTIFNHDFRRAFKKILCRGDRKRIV

Glucagon receptor = Glucagon receptor (Homo sapiens, UniProt P47871)
Estrogen receptor = target: T2, Estrogen receptor (Homo sapiens, UniProt P03372)
T2 sequence (P03372 whole entry): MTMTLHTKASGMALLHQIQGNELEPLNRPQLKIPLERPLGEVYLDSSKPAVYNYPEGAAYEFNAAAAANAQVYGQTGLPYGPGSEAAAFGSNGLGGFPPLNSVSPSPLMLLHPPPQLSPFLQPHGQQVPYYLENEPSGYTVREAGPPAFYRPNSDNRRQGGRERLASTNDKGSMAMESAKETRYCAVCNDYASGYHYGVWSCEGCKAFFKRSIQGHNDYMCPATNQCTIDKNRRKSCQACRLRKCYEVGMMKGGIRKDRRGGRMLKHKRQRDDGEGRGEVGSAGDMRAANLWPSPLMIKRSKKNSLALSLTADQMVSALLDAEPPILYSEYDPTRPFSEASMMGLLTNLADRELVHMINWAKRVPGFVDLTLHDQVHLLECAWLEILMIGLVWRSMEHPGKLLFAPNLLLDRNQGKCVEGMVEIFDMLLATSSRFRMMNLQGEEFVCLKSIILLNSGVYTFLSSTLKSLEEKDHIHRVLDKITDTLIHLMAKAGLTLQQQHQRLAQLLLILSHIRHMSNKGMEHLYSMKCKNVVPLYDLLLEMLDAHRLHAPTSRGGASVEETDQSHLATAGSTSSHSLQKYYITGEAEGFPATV

[2] = target: 5-hydroxytryptamine receptor 2B (Homo sapiens, UniProt P41595)
[3] = target: T3, Corticotropin-releasing factor receptor 2 (Homo sapiens, UniProt Q13324)
T3 sequence (Q13324 whole entry): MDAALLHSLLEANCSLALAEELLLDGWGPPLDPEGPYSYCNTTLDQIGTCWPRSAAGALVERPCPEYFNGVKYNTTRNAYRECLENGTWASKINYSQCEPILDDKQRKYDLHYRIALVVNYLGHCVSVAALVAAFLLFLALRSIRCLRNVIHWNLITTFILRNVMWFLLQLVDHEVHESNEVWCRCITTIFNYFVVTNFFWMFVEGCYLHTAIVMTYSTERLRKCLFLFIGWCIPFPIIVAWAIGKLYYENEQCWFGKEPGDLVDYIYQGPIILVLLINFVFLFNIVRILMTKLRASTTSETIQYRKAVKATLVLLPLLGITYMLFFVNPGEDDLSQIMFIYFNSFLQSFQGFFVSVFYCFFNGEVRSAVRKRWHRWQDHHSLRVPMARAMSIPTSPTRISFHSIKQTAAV

[4] = target: Sodium-dependent serotonin transporter (Homo sapiens, UniProt P31645)
[5] = target: Beta-3 adrenergic receptor (Homo sapiens, UniProt P13945)
[6] = target: T4, Gamma-aminobutyric acid receptor subunit alpha-1/alpha-2/beta-2/gamma-2 (Homo sapiens, UniProt P14867+P18507+P47869+P47870); format: functional, cell-based
[7] = target: T4, Gamma-aminobutyric acid receptor subunit alpha-1/alpha-2/beta-2/gamma-2; format: functional, cell-based; remark: listed apart in the source
D(1A) dopamine receptor = D(1A) dopamine receptor (Homo sapiens, UniProt P21728)
Progesterone receptor [8] = target: T5, Progesterone receptor (Homo sapiens, UniProt P06401); format: functional
T5 sequence (P06401 whole entry): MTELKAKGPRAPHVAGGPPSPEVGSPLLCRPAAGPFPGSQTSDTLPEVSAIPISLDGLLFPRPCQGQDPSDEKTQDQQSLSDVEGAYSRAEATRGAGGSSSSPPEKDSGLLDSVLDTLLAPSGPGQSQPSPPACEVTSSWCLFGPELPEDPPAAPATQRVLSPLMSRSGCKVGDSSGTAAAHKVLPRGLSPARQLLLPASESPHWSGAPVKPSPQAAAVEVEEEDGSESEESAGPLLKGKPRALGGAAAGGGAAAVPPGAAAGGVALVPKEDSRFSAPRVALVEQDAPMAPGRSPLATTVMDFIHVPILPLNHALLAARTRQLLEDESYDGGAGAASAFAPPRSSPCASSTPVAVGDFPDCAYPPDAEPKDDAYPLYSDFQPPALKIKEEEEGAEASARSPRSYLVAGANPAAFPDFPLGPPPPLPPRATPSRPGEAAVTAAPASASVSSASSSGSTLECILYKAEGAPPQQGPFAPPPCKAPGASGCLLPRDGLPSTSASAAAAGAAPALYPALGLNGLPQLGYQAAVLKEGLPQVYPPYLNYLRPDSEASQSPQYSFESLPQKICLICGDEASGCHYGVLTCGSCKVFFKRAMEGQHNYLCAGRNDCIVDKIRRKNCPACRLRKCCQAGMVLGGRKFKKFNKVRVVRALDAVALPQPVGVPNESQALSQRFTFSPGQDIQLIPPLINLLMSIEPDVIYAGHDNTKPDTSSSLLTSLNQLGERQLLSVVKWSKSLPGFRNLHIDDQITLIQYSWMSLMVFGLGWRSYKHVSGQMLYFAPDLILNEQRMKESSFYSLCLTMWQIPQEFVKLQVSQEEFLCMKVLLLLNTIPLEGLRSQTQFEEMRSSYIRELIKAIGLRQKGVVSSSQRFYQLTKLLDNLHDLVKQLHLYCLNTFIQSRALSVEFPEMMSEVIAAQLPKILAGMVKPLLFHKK

Progesterone receptor [9] = target: T5, Progesterone receptor; format: functional; remark: listed apart in the source
Also: assay procedure not described here.

Sequence of D(1A) dopamine receptor (P21728 whole entry): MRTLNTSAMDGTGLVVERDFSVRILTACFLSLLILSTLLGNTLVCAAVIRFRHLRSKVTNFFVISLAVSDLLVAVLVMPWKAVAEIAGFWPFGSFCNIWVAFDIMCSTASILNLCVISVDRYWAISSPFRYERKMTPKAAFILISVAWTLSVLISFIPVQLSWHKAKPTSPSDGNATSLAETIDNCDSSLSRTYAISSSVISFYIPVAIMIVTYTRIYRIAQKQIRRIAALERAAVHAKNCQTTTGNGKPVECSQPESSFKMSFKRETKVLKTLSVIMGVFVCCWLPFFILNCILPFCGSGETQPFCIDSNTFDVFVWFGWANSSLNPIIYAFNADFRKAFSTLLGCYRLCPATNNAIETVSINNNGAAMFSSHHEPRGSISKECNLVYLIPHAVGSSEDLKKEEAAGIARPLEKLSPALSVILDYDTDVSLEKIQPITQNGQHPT
Sequence of Sodium-dependent serotonin transporter (P31645 whole entry): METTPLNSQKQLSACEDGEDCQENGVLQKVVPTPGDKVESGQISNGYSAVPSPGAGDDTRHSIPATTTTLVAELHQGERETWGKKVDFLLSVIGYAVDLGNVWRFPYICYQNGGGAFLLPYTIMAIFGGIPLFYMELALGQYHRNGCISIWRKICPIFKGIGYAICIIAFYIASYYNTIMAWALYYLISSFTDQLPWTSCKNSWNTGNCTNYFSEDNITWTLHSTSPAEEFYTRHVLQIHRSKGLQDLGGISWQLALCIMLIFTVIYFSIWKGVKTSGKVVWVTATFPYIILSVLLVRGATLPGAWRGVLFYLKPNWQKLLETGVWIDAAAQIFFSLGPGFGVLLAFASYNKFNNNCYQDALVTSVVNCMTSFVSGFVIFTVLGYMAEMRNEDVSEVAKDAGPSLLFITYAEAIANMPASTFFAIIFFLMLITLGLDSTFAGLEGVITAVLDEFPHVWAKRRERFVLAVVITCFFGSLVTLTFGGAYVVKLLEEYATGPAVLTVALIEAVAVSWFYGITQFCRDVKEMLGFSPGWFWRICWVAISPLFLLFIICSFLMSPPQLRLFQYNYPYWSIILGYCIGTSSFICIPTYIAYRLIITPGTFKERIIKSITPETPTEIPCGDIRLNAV
Sequence of 5-hydroxytryptamine receptor 2B (P41595 whole entry): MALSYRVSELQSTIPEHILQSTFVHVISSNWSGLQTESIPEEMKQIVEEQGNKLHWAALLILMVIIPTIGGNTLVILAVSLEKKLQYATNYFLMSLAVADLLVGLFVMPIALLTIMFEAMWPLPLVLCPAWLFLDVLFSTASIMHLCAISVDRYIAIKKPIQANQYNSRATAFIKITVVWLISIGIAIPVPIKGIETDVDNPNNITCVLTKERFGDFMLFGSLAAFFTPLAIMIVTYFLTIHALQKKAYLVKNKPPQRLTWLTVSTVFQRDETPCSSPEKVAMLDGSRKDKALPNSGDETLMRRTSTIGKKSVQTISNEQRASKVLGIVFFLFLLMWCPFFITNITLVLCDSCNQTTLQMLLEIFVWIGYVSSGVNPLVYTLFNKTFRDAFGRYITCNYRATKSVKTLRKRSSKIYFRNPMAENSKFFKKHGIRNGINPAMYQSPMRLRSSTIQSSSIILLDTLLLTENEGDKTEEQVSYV
Sequence of Beta-3 adrenergic receptor (P13945 whole entry): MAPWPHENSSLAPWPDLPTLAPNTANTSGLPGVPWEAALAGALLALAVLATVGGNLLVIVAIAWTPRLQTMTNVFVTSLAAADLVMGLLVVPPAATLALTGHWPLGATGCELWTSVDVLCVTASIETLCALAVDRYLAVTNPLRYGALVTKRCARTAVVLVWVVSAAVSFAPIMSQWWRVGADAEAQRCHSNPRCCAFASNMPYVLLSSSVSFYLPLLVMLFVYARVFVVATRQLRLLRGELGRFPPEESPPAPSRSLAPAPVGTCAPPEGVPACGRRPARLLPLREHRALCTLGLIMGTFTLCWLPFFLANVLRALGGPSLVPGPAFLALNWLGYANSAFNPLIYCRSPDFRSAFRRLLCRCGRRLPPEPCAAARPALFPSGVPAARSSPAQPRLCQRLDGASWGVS
Sequence of Glucagon receptor (P47871 whole entry): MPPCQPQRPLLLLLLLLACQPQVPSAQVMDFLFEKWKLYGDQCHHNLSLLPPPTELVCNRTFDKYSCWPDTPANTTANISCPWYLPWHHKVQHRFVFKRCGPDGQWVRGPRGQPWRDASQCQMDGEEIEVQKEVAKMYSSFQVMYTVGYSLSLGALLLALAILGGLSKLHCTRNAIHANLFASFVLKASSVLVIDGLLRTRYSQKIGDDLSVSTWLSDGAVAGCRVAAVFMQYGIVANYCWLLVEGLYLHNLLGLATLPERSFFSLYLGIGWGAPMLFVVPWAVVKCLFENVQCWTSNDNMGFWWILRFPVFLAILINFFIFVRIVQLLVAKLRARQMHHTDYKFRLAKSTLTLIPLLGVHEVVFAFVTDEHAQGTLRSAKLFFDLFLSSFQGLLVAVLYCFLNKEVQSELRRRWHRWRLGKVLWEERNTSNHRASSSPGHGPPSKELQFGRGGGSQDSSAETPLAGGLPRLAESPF
T4 sequence (P14867 whole entry): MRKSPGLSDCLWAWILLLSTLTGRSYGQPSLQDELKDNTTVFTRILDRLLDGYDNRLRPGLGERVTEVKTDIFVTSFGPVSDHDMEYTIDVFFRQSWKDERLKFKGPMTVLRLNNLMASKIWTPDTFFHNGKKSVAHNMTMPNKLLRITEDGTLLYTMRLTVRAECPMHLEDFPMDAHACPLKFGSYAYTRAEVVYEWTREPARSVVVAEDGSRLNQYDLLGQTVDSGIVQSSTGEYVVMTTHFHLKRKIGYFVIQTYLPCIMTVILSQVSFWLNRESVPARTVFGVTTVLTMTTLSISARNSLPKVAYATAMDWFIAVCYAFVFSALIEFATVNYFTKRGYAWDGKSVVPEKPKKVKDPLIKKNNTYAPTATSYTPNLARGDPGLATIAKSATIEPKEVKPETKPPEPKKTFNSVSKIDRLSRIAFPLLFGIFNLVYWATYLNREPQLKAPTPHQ
T4 sequence (P47870 whole entry): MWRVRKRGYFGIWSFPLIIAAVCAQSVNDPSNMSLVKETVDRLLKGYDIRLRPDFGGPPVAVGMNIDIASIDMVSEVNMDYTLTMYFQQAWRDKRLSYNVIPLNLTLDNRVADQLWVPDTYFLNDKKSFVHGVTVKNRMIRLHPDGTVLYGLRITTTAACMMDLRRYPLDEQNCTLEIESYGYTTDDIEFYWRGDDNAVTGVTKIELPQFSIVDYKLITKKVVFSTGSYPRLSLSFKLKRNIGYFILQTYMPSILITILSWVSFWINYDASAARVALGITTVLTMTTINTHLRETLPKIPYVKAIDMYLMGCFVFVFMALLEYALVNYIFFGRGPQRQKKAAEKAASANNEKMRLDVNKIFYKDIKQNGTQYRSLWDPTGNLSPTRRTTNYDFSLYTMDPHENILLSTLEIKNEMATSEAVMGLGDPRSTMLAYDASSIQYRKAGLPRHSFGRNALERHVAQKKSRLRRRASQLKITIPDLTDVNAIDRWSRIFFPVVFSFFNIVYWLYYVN
T4 sequence (P18507 whole entry): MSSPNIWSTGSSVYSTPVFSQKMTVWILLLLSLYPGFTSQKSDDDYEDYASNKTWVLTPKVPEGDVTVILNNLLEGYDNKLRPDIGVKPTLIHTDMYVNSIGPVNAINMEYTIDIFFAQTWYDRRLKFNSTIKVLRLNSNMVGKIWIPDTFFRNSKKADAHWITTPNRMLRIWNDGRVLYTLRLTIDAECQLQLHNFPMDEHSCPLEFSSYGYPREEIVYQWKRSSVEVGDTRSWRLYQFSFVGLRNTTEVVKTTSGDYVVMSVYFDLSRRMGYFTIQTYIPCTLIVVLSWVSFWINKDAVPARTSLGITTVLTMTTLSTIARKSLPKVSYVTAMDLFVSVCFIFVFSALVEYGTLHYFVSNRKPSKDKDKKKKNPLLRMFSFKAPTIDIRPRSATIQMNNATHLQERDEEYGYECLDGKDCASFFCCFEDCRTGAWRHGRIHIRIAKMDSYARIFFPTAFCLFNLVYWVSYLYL
T4 sequence (P47869 whole entry): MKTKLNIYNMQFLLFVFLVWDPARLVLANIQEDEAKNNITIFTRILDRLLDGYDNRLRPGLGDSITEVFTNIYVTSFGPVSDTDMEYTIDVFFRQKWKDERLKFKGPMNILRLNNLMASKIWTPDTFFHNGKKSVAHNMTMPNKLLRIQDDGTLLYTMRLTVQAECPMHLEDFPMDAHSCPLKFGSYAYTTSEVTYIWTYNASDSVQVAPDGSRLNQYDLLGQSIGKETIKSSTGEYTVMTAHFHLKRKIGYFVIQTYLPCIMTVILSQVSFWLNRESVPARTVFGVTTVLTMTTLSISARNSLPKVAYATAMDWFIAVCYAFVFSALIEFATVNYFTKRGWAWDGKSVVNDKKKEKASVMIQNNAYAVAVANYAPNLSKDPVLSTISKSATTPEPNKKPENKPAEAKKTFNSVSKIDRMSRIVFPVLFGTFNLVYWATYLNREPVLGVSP
Sequence of Substance-P receptor (P25103 whole entry): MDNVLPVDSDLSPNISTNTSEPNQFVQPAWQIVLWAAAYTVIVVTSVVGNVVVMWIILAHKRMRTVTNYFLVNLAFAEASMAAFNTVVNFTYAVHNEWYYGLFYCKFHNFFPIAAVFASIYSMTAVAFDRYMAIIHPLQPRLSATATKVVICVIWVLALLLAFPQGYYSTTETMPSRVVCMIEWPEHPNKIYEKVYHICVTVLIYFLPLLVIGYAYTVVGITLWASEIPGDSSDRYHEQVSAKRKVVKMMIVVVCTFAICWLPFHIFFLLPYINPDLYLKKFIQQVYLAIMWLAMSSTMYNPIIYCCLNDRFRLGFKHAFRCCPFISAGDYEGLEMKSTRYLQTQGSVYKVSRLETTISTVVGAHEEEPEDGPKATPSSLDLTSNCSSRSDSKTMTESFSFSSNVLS

| Structure (SMILES) | AC50 (Glucagon receptor) [µM] | AC50 (Estrogen receptor) [µM] | AC50 [2] [µM] | AC50 [4] [µM] | AC50 [5] [µM] | AC50 [6] [µM] | AC50 [7] [µM] | AC50 (Progesterone receptor [8]) [µM] | AC50 (Progesterone receptor [9]) [µM] | other results |
| --- | --- | --- | --- | --- | --- | --- | --- | --- | --- | --- |
| COc1ccc(C(=O)Nc2ccccc2CCC2CCCCN2C)cc1 (stereo not given) [ENCAINIDE] | > 30 | > 30 | 3.66 | > 10 | > 30 |  |  |  |  | AC50 (Substance-P receptor): > 10 µM; AC50 [1]: > 10 µM; AC50 [3]: > 30 µM |
| NC1CCN(c2c(F)cc3c(=O)c(C(=O)O)cn(C4CC4)c3c2Cl)C1 (stereo not given) [CLINAFLOXACIN] |  |  |  |  |  | > 300 | > 300 |  |  |  |
| CCOc1ccc(Cc2cc([C@@H]3O[C@H](CO)[C@@H](O)[C@H](O)[C@H]3O)ccc2Cl)cc1 [DAPAGLIFLOZIN] |  | > 30 | > 10 |  | > 30 |  |  |  |  | AC50 [1]: 8.66 µM |
| Nc1ccncc1N [AMIFAMPRIDINE] |  |  |  |  |  |  |  |  |  | AC50 (D(1A) dopamine receptor): > 30 µM |
| COc1ccccc1N1CCN(CC(O)COc2cccc3ccccc23)CC1 (stereo not given) [NAFTOPIDIL] |  |  | 0.047 |  |  |  |  | > 30 | > 30 | AC50 (D(1A) dopamine receptor): > 30 µM |
| Cc1oc(=O)oc1CN1CCN(c2cc3c(cc2F)c(=O)c(C(=O)O)c2n3C(C)S2)CC1 (stereo not given) [PRULIFLOXACIN] |  |  |  |  |  | > 30 | > 30 |  |  | AC50 (D(1A) dopamine receptor): > 30 µM |
| CN1CCN(C2=Nc3ccccc3Sc3ccc(Cl)cc32)CC1 [CLOTHIAPINE] |  |  |  |  |  | > 30 | > 10 |  |  |  |
| CN(C)CCc1c[nH]c2ccc(C[C@H]3COC(=O)N3)cc12 [ZOLMITRIPTAN] |  | > 30 |  | > 30 |  | > 30 | > 30 | > 30 | > 30 |  |
| O=[N+]([O-])O[C@@H]1CO[C@H]2[C@@H]1OC[C@@H]2O [ISOSORBIDE MONONITRATE] | > 30 | > 30 | > 10 | > 10 | > 30 |  |  |  |  | AC50 (Substance-P receptor): > 10 µM; AC50 [1]: > 10 µM; AC50 [3]: > 30 µM |
| CC[C@H]1CN2CCc3cc(OC)c(OC)cc3[C@@H]2C[C@@H]1C[C@H]1NCCc2cc(OC)c(OC)cc21 [EMETINE] |  |  |  |  |  | > 30 | > 30 | > 30 | > 30 | AC50 (D(1A) dopamine receptor): > 30 µM |
| C=CCCCCCCCCC(=O)O [UNDECYLENIC ACID] |  |  |  |  |  |  |  |  |  | AC50 (D(1A) dopamine receptor): > 30 µM |
| C=CCN1C[C@H](C(=O)N(CCCN(C)C)C(=O)NCC)C[C@@H]2c3cccc4[nH]cc(c34)C[C@H]21 [CABERGOLINE] |  | > 10 | 0.0086 | 23.4 |  | > 30 | > 30 | > 10 | > 10 |  |
| CCC(CC)(CC(=O)Nc1cccc(/C=C/c2nc(C3CCC3)cs2)c1)C(=O)O |  | > 30 |  | > 30 |  |  |  | > 30 | > 30 |  |
| CN(C)CCC=C1c2ccccc2C=Cc2ccccc21 [CYCLOBENZAPRINE] | > 30 | > 30 |  |  | > 30 |  |  |  |  | AC50 [3]: > 30 µM |
| CN(C)CC/C=C1\c2ccccc2CSc2ccccc21 [DOTHIEPIN] |  | > 30 |  |  |  |  |  |  | > 30 |  |
| CC[C@@H](C(N)=O)N1CCCC1=O |  | > 30 |  | > 30 |  | > 30 | > 30 | > 30 | > 30 |  |
| Cc1cc(C)c(NC(=O)CN(CC(=O)O)CC(=O)O)c(C)c1Br [MEBROFENIN] |  |  |  |  |  | > 30 | > 30 |  |  | AC50 (D(1A) dopamine receptor): > 30 µM |
| COC1=C(OC)C(=O)C(C/C=C(\C)CC/C=C(\C)CC/C=C(\C)CC/C=C(\C)CC/C=C(\C)CC/C=C(\C)CC/C=C(\C)CC/C=C(\C)CC/C=C(\C)CCC=C(C)C)=C(C)C1=O [UBIDECARENONE] |  |  |  |  |  | > 30 | > 30 |  |  |  |
| CCCCCNC(=N)N/N=C/c1c[nH]c2ccc(OC)cc12 [TEGASEROD] | > 30 |  | 0.0206 | 3.47 | 6.08 |  |  | > 30 | 21 | AC50 (Substance-P receptor): > 10 µM; AC50 [1]: 0.31 µM; AC50 [3]: > 30 µM |
| CCOc1ccccc1OCC1CNCCO1 (stereo not given) [VILOXAZINE] | > 30 | > 30 | 2.34 |  | > 30 |  |  |  |  | AC50 (Substance-P receptor): > 10 µM; AC50 [1]: > 10 µM; AC50 [3]: > 30 µM |
| O=[N+]([O-])c1cn2c(n1)OC[C@@H](OCc1ccc(OC(F)(F)F)cc1)C2 [PRETOMANID] | > 30 |  | > 10 | > 10 | > 30 |  |  |  |  | AC50 (Substance-P receptor): > 10 µM; AC50 [1]: > 10 µM |
| COc1cc2nc(N3CCN(C(=O)c4ccco4)CC3)nc(N)c2cc1OC [PRAZOSIN] | > 30 | > 30 | 2.57 |  | > 30 |  |  |  |  | AC50 (Substance-P receptor): > 10 µM; AC50 [3]: > 30 µM |
